Where a SMILES comes first, the peptide text is derived from it. The star is where a group is joined. Cbz = O=C(OCc1ccccc1)*; CH2Cl = ClC*
Assays:
Calpain II [1] = assay: Kapp/[I] progress curve method, Calpain II (Table 1C); type: biochemical; set-up: unit not given here; details: Rabbit Calpain II, Suc-leu-tyr-amidomethylcoumarin
Description: The Halo-Ketone Peptides, like the substituted isocoumarins, are irreversible inhibitors of Calpain. We determined the Kapp /[I] values for various members of this class of compounds against Calpains I and II. For comparison, we also determined these values against the additional thiol proteases Papain and Cathepsin B for at least one Halo-Ketone Peptide.
We assayed Calpain I and II using Suc-leu-tyr-amidomethylcoumarin. Papain was assayed using benzoyl-arg-4-nitroanilide, and Cathepsin B (bovine) was assayed using CBZ-lys-4-nitrophenyl ester. We followed the progress curve method of Tian and Tsou, Biochemistry, 21:1028-1032 (1982), the disclosure of which is hereby incorporated by reference, to derive kinetic data. Briefly, this method makes use of the equation: [formula] where [P.infin. ] represents the concentration of product formed at a time approaching infinity, A is the Kapp in the presence of substrate (S), K is the Michaelis constant and [Y] is the concentration of the inhibitor. Since [S] and [Y] are known and V and K can be determined, Kapp can be readily determined.

Calpain I [2] = target: T1, Calpain I (Homo sapiens, UniProt P07384); assay: Calpain I 14C-methylated casein proteolysis (Table 1A); type: biochemical
T1 sequence (P07384 1-714): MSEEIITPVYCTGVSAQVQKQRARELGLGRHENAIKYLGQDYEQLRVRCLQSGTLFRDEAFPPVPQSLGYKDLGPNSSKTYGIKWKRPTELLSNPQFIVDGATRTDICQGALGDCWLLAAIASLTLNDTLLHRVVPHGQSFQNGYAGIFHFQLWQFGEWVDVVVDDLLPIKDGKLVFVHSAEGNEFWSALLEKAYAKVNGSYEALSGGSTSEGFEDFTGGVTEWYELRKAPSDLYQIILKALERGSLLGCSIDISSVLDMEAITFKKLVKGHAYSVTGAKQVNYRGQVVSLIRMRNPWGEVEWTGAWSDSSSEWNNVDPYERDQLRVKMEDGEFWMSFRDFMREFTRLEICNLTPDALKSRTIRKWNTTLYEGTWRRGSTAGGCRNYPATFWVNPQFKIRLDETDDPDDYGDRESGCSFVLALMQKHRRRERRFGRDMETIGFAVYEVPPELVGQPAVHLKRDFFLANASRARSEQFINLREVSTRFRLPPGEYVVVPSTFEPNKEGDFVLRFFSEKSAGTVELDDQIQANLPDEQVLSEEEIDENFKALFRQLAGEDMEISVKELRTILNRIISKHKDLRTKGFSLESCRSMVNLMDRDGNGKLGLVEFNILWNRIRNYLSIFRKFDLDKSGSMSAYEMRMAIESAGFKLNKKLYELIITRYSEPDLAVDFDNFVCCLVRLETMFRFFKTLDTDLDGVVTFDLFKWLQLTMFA
T1 sequence (P04632 1-268 partner): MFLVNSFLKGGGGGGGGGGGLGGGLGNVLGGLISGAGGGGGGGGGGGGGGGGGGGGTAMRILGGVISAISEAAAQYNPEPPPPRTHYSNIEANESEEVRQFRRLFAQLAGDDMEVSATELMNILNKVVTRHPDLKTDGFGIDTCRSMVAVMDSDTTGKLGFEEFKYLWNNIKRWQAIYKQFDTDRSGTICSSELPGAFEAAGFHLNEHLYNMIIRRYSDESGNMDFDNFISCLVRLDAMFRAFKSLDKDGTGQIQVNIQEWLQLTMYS
Description: The isocoumarins are irreversible inhibitors of Calpain. We obtained IC50 values for a variety of these Calpain Inhibitors as a kinetic analysis of these compounds.
Calpains I and II were purified by the method of (Yoshimura, et al. 1983). (Kitahara 1984) provides an alternative purification scheme. Calpain II may alternatively be purchased from Sigma Chemical Co. as "Calcium Activated Neutral Protease." In this assay, purified Calpain was incubated with ^14 C-methylated casein in the presence of various Heterocyclic Compounds and the amount of acid-soluble radioactivity released by the action of Calpain was measured.

[3] = test system: Calpain in crude brain extracts; assay: Ca2+-stimulated spectrin proteolysis in crude brain extracts (Example 2); type: biochemical; details: 100 μM
Description: The activity of Calpain in crude brain extracts was measured by examining the Ca^2+ -stimulated proteolysis of the endogenous substrate spectrin. Brain tissue was homogenized in 10 mM Tris pH=7.4, 0.32M sucrose, 1 mM EGTA, 1 mM dithiothreitol and the nuclei and debris removed by low speed centrifugation. […] Proteolysis of spectrin was evaluated by western blot as described by Seubert, et at. (Brain Research, 459:226-232, 1988), the disclosure of which is hereby incorporated by reference. Briefly, a known quantity of a spectrin-containing sample treated with Calpain is separated by SDS-PAGE and immunoblotted with anti-spectrin antibody. The amount of spectrin immunoreactivity found corresponding to the characteristic BDP's is indicative of the amount of […] activity present in the sample. An examplary method for quantitating BDP's is to assay Spectrin BDP's by homogenizing brain parts in 20 mM Tris pH=7.2, 0.32M sucrose, 50 μM Ac-Leu-Leu-nLeu-H on ice. Homogenates are then mixed 1:1 with 10% SDS, 5% β-mercaptoethanol, 10% glycerol, 10 mM Tris pH=8.0, 0.5% bromophenolblue, heated to 95° C., and subjected to electrophoresis in 41/2% polyacrylamide gels. The proteins in the gels are transferred to nitrocellulose and the spectrin and BDP's detected using a rabbit polyclonal anti-spectrin antibody and established immunodetection methods. The amount of spectrin and BDP's in each sample can be quantitated by densitrometric scanning of the developed nitrocellulose.

Calpain within platelets = assay: Platelet membrane permeation assay, spectrin proteolysis (Examples 4A, 4B); type: cell-based, rat; details: for inhibition of Calpain within platelets: A23187 1 μM; for IC50: concentration at which 50% of the Calpain activation present in controls occurred
Outline: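 Rat (Sprague-Dawley) platelets at 10^7 cells/ml in HEPES buffer pH 7.4, preincubated 5 min with inhibitor, then 5 min with 1 μM A23187 to activate calpain. Spectrin proteolysis assessed by SDS-PAGE and anti-spectrin immunoblot, quantified by densitometry.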

Calpain II [4] = assay: Calpain II KI (Table 1B(ii)); type: biochemical
Excerpt: (§1) We tested the ability of an additional group of Peptide Keto-Compounds to inhibit several proteases in order to evaluate their specificity for Calpain.

Cathepsin B = Cathepsin B (Bos taurus, UniProt P07688); assay: Cathepsin B KI (Table 1B(ii)); type: biochemical; details: read-out: KI CathB
Excerpt: as §1

Chym = Chym (Bos taurus, UniProt P00766); assay: Chym KI (Table 1B(ii)); type: biochemical
Excerpt: as §1

Stability in plasma = type: in vitro ADME; details: unit assumed
Excerpt: (§2) We determined the haft-life of several Peptide Keto-Compounds in both plasma and liver homogenates.

[5] = Stability in liver homogenates; type: in vitro ADME; details: unit assumed
Excerpt: as §2

Calpain I [6] = target: T1, Calpain I; assay: Calpain I KI (Table 1B(ii)); type: biochemical; details: Table 1B(ii)
Excerpt: as §1

PP Elastase = PP Elastase (Sus scrofa, UniProt P00772); assay: PP Elastase KI (Table 1B(ii)); type: biochemical
Excerpt: as §1

Papain = target: T2, Papain (Carica papaya, UniProt P00784); assay: Papain KI (Table 1B(ii)); type: biochemical
T2 sequence (P00784 134-345): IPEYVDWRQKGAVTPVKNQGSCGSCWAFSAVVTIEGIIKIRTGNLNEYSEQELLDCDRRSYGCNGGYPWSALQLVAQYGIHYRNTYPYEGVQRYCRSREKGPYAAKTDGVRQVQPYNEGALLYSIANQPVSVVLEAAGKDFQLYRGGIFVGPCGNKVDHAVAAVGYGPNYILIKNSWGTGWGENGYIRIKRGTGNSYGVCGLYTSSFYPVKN
Excerpt: as §1

Chain of PP Elastase (P00772 27-266): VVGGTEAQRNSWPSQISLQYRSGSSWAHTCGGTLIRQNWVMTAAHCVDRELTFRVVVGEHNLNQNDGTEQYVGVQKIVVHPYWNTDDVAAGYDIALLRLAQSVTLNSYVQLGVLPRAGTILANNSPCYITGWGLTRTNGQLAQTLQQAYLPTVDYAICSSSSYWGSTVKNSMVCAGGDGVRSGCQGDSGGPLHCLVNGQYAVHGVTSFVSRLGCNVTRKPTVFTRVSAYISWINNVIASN

Compound	Kapp/[I] CII (Calpain II [1])	IC50 (Calpain I [2])	inhibition of spectrin proteolysis in crude brain extracts [3]	inhibition of Calpain within platelets (Calpain within platelets; 100 μM)	Ki (Calpain II [4])	Ki (Cathepsin B)	Ki (Chym)	t1/2 plasma (Stability in plasma)	t1/2 liver [5]	IC50 (Calpain within platelets)	Ki (Calpain I [6])	Ki (PP Elastase)	Ki (Papain)	platelet assay, semi-quantitative (Calpain within platelets; semi-quantitative, 100 μM)
CC(=O)NC(C)C(=O)NC(C)C(=O)NC(C)C(=O)NC(C)C(=O)CCl (stereo not drawn) [Ac-Ala-Ala-Ala-Ala-CH2 Cl] (Ac-AAAA-CH2Cl; configuration not given here)	1300													
N=C(N)SCCOc1oc(=O)c2cc(NC(=O)[C@H](N)Cc3ccccc3)ccc2c1Cl [D-Phe-NH-CiTEtOIC, 7-(D-phenylalanylamino)-4-chloro-3-(2-isothiureidoethoxy)isocoumarin]		200 µM	significant inhibition	significant inhibition										
N=C(N)SCCOc1oc(=O)c2cc(NC(=O)Cc3ccccc3)ccc2c1Cl [PhCH2 CONH-CiTEtOIC, 7-(phenylacetylamino)-4-chloro-3-(2-isothiureidoethoxy)isocoumarin]		30 µM												
N=C(N)SCCOc1oc(=O)c2cc(NC(=O)NCc3ccccc3)ccc2c1Cl [PhCH2 NHCONH-CiTEtOIC, 7-(benzylcarbamoylamino)-4-chloro-3-(2-isothiureidoethoxy)isocoumarin]		90 µM	significant inhibition	significant inhibition										
CC(NC(=O)OCc1ccccc1)C(=O)NC(Cc1ccccc1)C(=O)CCl (stereo not drawn) [Z-Ala-Phe-CH2 Cl]	2400													
CCC(NC(=O)C(CC(C)C)NC(=O)OCc1ccccc1)C(=O)C(=O)NCc1ccccc1 (stereo not drawn) [Z-Leu-Abu-CONHBz, Z-Leu-Abu-CONH-Bzl]					0.35 µM	2 µM	> 300 µM	> 1 h	> 1 h	1.5 µM				
CCCCNC(=O)C(=O)C(CC)NC(=O)C(CC(C)C)NC(=O)OCc1ccccc1 (stereo not drawn) [Z-Leu-Abu-CONHnBu, Z-Leu-Abu-CONH-nBu]						13 µM	> 300 µM	> 1 h	> 1 h	2 µM	0.2 µM	5 µM		
CCCNC(=O)C(=O)[C@H](CC)NC(=O)[C@H](CC(C)C)NC(=O)OCc1ccccc1 [Z-Leu-Abu-CONHnPr, Z-Leu-Abu-CONH-nPr]					0.25 µM	8 µM	> 300 µM	> 1 h	> 1 h	70 µM		2 µM		
CCC(NC(=O)C(CC(C)C)NC(=O)OCc1ccccc1)C(=O)C(=O)O (stereo not drawn) [Z-Leu-Abu-COOH]				significant inhibition	0.022 µM	1.5 µM	> 150 µM	> 1 h	> 1 h	8 µM	0.075 µM	> 150 µM		
CCCCNC(=O)C(=O)C(Cc1ccccc1)NC(=O)C(CC(C)C)NC(=O)OCc1ccccc1 (stereo not drawn) [Z-Leu-Phe-CONHnBu, Z-Leu-Phe-CONH-nBu]					0.028 µM	3 µM	8 µM	> 1 h	> 1 h	38 µM		> 100 µM		
CCCNC(=O)C(=O)C(Cc1ccccc1)NC(=O)C(CC(C)C)NC(=O)OCc1ccccc1 (stereo not drawn) [Z-Leu-Phe-CONHnPr, Z-Leu-Phe-CONH-nPr]					0.05 µM	3 µM	18 µM	> 1 h	> 1 h	24 µM	15 µM	> 300 µM		
CC(C)CC(NC(=O)OCc1ccccc1)C(=O)NC(Cc1ccccc1)C(=O)C(=O)O (stereo not drawn) [Z-Leu-Phe-COOH]				significant inhibition	0.0057 µM	4.5 µM	76 µM	> 1 h	> 1 h	6.5 µM	0.0085 µM	> 150 µM		
CC(C)C(NC(=O)OCc1ccccc1)C(=O)NC(Cc1ccccc1)C(=O)CCl (stereo not drawn) [Z-Val-Phe-CH2 Cl] (Cbz-Val-Phe-CH2Cl; configuration not given here)	27200													
Z-Leu-Met-CO2 Et [Z-Leu-Met-COOEt]			significant inhibition	significant inhibition	1.5 µM	55 µM	1.75 µM	0.133 h			1 µM	> 100 µM	140 µM	+

Reference: patent US5444042A, “Method of treatment of neurodegeneration with calpain inhibitors” (Cortex Pharmaceuticals, priority 1994, dated 1995)
